Experiments:
[1] = system: advanced soft tissue sarcoma; test: RMH-SARC retrospective cohort: advanced STS patients treated with pazopanib, PFS, OS and RECIST 1.1 response; assay type: in vivo, human
Source text: Collection and analysis of anonymised archival FFPE tissue and associated clinical data was approved in as a sub-study protocol amendment to the Royal Marsden-sponsored Elucidation of a Molecular signature of Pazopanib Response in Advanced soft tissue Sarcoma including solitary fibrous tumours (EMPRASS) study. (RMH Committee for Clinical Research reference 4107, NHS Research Ethic Committee reference 14/WA/0164). This cohort is referred to as RMH-SARC in this manuscript.
Patients were retrospectively identified for inclusion by search of institutional database and electronic patient records compiled during routine clinical practice. Eligibility criteria for inclusion were: i) histopathological diagnosis of soft tissue tumour as confirmed by contemporaneous report by specialist sarcoma histopathologist; ii) received at least one dose of pazopanib for treatment of unresectable or advanced STS; iii) available FFPE tumour specimen, obtained from patient prior to first dose of pazopanib. Treatment and response monitoring was as per standard institutional practice, with pazopanib at 800 mg once daily until disease progression, intolerable toxicity or significant clinical deterioration. Dose interruption and/or reduction were instigated based on standard institutional guidelines and the discretion of the treating physician. Baseline clinico-pathological characteristics and survival data were collected on retrospective review of contemporaneous electronic medical records. All related radiological imaging was retrospectively reviewed and disease response assessed according to RECIST 1.1. This manuscript is written according to the Reporting Recommendations for Tumor Marker Prognostic Studies (REMARK) guidelines15.
The stepwise primary objectives were to assess whether a surrogate of two immunohistochemical markers (FGFR1 and PDGFRA) and TP53 mutation status had statistical significant prognostic information for advanced STS. In this event, the two biomarkers panel were tested to determine if there is added statistically significant prognostic information to standard clinicopathological variables in multivariable comparisons. The secondary analyses included identification of biological subgroups based on gene expression profiles, and evaluation of the significance of these biological subgroups association with patient outcome. Progression free survival (PFS—defined as time in months from first dose of pazopanib to radiological disease progression or death from any cause) was the primary outcome endpoint, with overall survival (OS—defined as a time in months from first dose of pazopanib to death from any cause) as the secondary outcome endpoint. Data cut-off for survival follow-up was 30 Nov. 2016. Statistical analyses were performed by two senior statisticians. The Kaplan-Meier method was used to estimate PFS and OS, and the log-rank test to compare survival in different strata. Multivariable cox regression model was used to estimate the significance adjusted for the standard clinicopathological variables (including age, tumour grade, performance status and histological subtype). Proportional hazard assumption was tested using Schoenfeld residuals, and where deemed appropriate, Restricted Mean Survival was used. Interaction tests between FGFR1 and PDGFRA expression to predict for survival were evaluated for PFS and OS respectively. Likelihood ratio tests based on proportional hazards regression were used to test the prognostic information of all biomarkers. The quantification of the amount of prognostic information provided by one biomarker was assessed by the likelihood ratio χ^2 value (LRχ^2), and the additional information of one biomarker to biomarker score was measured by the increase of the likelihood ratio χ^2 value (ΔLRχ^2) obtained from the proportional hazards model.
Patients were identified by retrospective search of prospectively compiled institutional database and electronic patient records. […]

STS subtypes = details: randomised phase II trial; cited from earlier work
advanced STS = details: 1st line, in combination with doxorubicin; cited from earlier work
[2] = F-Lo/P-Hi (FGFR1-Lo/PDGFRA-Hi) subgroup
[3] = gene expression subgroup A (IHCneg, TP53 wt)

Cc1ccc(Nc2nccc(N(C)c3ccc4c(C)n(C)nc4c3)n2)cc1S(N)(=O)=O [pazopanib, Pazopanib]
patients who had died (overall survival event) ([1]; 31 of 38 patients, median follow-up 26.2 months): 82% | patients with a progression-free survival event ([1]; 35 of 38 patients, median follow-up 26.2 months): 92% | median OS [1, 2]: 1.7 months | median PFS [1, 2]: 1.4 months | PFS HR, multivariable analysis ([1]; F-Lo/P-Hi v. IHCneg, adjusted for clinico-pathological factors, 95% CI 3.86-40.72): 12.54 | OS HR, multivariable analysis ([1]; F-Lo/P-Hi v. IHCneg, adjusted, 95% CI 5.90-82.81): 22.11 | OS HR, univariate analysis ([1]; FGFR1-Lo/PDGFRA-Hi v. IHCneg, 95% CI 2.51-17.91): 6.70 | PFS HR, univariate analysis ([1]; FGFR1-Lo/PDGFRA-Hi v. IHCneg, 95% CI 3.58-25.94): 9.64 | progression as best response ([1]; RECIST 1.1, 17/38): 44.7% | objective radiological response ([1]; RECIST 1.1, best response, 1/38): 2.6% | stable disease ([1]; RECIST 1.1, best response, 20/38): 52.6% | PFS HR, univariate analysis ([1]; TP53 mutated v. wildtype, all 38 patients, 95% CI 0.83-3.76, P 0.14): 1.77 | OS HR, univariate analysis ([1]; TP53 mutated v. wildtype, all 38 patients, 95% CI 1.15-5.51, P 0.02): 2.51 | PFS HR ([1]; TP53 mutation v. wildtype in 31 IHCneg cases, 95% CI 1.03-5.34, p=0.04): 2.34 | OS HR ([1]; TP53 mutation v. wildtype in 31 IHCneg cases, 95% CI 1.44-8.39, p=0.003): 3.47 | PFS HR, multivariable analysis ([1]; TP53 mutation v. wildtype, adjusted, 95% CI 1.45-10.86, p=0.007): 3.97 | OS HR, multivariable analysis ([1]; TP53 mutation v. wildtype, adjusted, 95% CI 2.56-24.41): 7.90 | median OS [1, 3]: 34.4 months | median PFS [1, 3]: 12.8 months | OS HR ([1]; high v. low PDGFRA expression, 95% CI 1.01-4.35, p=0.04): 2.08 | median PFS ([1]; patients with partial response or stable disease): 6.4 months | OS HR ([1]; subgroup A v. subgroup B or C, 22 IHCnegTP53 wt patients, 95% CI 0.04-0.96, p=0.03): 0.20 | PFS HR ([1]; subgroup A v. subgroup B or C, 22 IHCnegTP53 wt patients, 95% CI 0.09-0.85, p=0.02): 0.27 | median OS ([1]; whole cohort, 38 patients): 9.5 months | median PFS ([1]; whole cohort, 38 patients, pazopanib 800 mg once daily): 3.7 months

CNC(=O)c1cc(Oc2ccc(NC(=O)Nc3ccc(Cl)c(C(F)(F)F)c3)c(F)c2)ccn1 [regorafenib, Regorafenib]
efficacy in STS subtypes (STS subtypes): efficacy in several STS subtypes but not adipocytic tumours

olaratumab
OS benefit (advanced STS): marked OS benefit
